Source: ChEMBL document CHEMBL1641545 (Bioorg Med Chem Lett, 2011)

Legend:
[1] = biological target: T1, Kappa-type opioid receptor (Homo sapiens, UniProt P41145); experiment: Displacement of [3H]diprenorphine from kappa opioid receptor expressed in HEK293 cells relative to salvinorin A; type: cell-based; parameters: concentration or dose not given beside the values
Mu-type opioid receptor [2] = biological target: T2, Mu-type opioid receptor (Homo sapiens, UniProt P35372); experiment: Displacement of [3H]DAMGO from mu opioid receptor expressed in HEK293 cells relative to DAMGO; type: cell-based; parameters: concentration or dose not given beside the values
[3] = biological target: T1, Kappa-type opioid receptor; experiment: Displacement of [3H]U69593 from kappa opioid receptor expressed in HEK293 cells; type: cell-based
Mu-type opioid receptor [4] = biological target: T2, Mu-type opioid receptor; experiment: Displacement of [3H]DAMGO from mu opioid receptor expressed in HEK293 cells; type: cell-based
[5] = biological target: T3, Delta-type opioid receptor (Homo sapiens, UniProt P41143); experiment: Displacement of [3H]DADLE from delta opioid receptor expressed in HEK293 cells relative to DADLE; type: cell-based; parameters: concentration or dose not given beside the values
[6] = Selectivity ratio of Ki for mu opioid receptor to Ki for kappa opioid receptor
[7] = Selectivity ratio of Ki for delta opioid receptor to Ki for kappa opioid receptor
[8] = biological target: T3, Delta-type opioid receptor; experiment: Displacement of [3H]DADLE from delta opioid receptor expressed in HEK293 cells; type: cell-based
[9] = biological target: T1, Kappa-type opioid receptor; experiment: Displacement of [3H]U69593 from kappa opioid receptor expressed in HEK293 cells relative to salvinorin A; type: cell-based; parameters: concentration or dose not given beside the values
[10] = biological target: T1, Kappa-type opioid receptor; experiment: Agonist activity at kappa opioid receptor expressed in HEK293 cells by [35S]GTPgammaS binding assay; type: functional, cell-based
[11] = biological target: T1, Kappa-type opioid receptor; experiment: Agonist activity at kappa opioid receptor expressed in HEK293 cells by [35S]GTPgammaS binding assay relative to salvinorin A; type: functional, cell-based

T2 sequence (P35372 whole entry): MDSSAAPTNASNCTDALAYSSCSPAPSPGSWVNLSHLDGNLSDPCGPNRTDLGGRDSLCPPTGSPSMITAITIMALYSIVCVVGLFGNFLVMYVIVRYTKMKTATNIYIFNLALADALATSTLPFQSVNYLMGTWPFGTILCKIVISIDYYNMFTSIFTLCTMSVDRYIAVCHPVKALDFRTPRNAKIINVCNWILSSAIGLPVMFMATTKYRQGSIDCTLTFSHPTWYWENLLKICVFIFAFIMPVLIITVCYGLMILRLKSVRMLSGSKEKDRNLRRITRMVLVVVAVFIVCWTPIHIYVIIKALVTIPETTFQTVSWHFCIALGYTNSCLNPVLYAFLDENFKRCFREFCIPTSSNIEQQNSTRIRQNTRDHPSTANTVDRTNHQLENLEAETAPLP
T3 sequence (P41143 whole entry): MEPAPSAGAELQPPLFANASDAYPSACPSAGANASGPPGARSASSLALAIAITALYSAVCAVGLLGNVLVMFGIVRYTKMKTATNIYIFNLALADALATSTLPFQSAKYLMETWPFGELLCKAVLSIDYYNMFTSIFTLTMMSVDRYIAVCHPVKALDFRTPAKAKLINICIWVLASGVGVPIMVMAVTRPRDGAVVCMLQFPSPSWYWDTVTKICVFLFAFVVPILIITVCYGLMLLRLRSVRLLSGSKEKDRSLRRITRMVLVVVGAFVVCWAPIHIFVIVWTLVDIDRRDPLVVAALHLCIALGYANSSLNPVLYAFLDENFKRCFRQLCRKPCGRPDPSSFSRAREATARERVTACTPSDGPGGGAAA
T1 sequence (P41145 whole entry): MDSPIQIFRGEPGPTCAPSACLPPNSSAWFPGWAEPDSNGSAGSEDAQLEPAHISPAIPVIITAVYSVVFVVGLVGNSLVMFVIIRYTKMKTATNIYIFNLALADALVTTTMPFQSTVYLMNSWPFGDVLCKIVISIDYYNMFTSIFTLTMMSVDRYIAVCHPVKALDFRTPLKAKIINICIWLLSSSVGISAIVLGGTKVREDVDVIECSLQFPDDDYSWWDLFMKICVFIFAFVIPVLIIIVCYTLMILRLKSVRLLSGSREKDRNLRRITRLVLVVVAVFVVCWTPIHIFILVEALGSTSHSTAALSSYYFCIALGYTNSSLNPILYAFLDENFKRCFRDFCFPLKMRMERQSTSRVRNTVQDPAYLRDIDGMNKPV

Row | Compound | Activity [1] | Activity (Mu-type opioid receptor [2]) | Ki [3] | Ki (Mu-type opioid receptor [4]) | Activity [5] | Ratio Ki [6] | Ratio Ki [7] | Ki [8] | Activity [9] | EC50 [10] | Emax [10] | Emax [11]
1 | COC(=O)[C@@H]1C[C@H](OC(=O)[C@H](C)N)C(=O)[C@H]2[C@@]1(C)CC[C@H]1C(=O)O[C@H](c3ccoc3)C[C@]21C | 0% | -1.6% | 3.78 µM | > 10 µM | 18% | > 2.64 | > 2.64 | > 10 µM | 82% | – | – | –
2 | COC(=O)[C@@H]1C[C@H](OC(=O)CCCN)C(=O)[C@H]2[C@@]1(C)CC[C@H]1C(=O)O[C@H](c3ccoc3)C[C@]21C | 0% | 1% | – | – | 28% | – | – | – | 48% | – | – | –
3 | COC(=O)[C@@H]1C[C@H](OC(=O)[C@@H](N)C(C)C)C(=O)[C@H]2[C@@]1(C)CC[C@H]1C(=O)O[C@H](c3ccoc3)C[C@]21C | 91% | 5% | 0.042 µM | > 10 µM | 48% | > 238 | > 238 | > 10 µM | 103% | 0.213 µM | 828% | 118%
4 | COC(=O)[C@@H]1C[C@H](OC(=O)[C@@H](N)[C@H](C)OC(C)(C)C)C(=O)[C@H]2[C@@]1(C)CC[C@H]1C(=O)O[C@H](c3ccoc3)C[C@]21C | 0% | 2% | – | – | 11% | – | – | – | 6% | – | – | –
5 | Oc1ccc2c3c1O[C@H]1c4[nH]c5ccccc5c4C[C@@]4(O)[C@@H](C2)N(CC2CC2)CC[C@]314 | – | – | – | – | 100% | – | – | – | – | – | – | –
6 | COC(=O)[C@@H]1C[C@H](OC(=O)[C@@H](NC(=O)OCC2c3ccccc3-c3ccccc32)[C@H](C)OC(C)(C)C)C(=O)[C@H]2[C@@]1(C)CC[C@H]1C(=O)O[C@H](c3ccoc3)C[C@]21C | 12% | 18% | – | – | 8% | – | – | – | 28% | – | – | –
7 | COC(=O)[C@@H]1C[C@H](OC(=O)[C@@H](NC(=O)OCC2c3ccccc3-c3ccccc32)C(C)C)C(=O)[C@H]2[C@@]1(C)CC[C@H]1C(=O)O[C@H](c3ccoc3)C[C@]21C | 0% | 15% | – | – | 22% | – | – | – | 39% | – | – | –
8 | COC(=O)[C@@H]1C[C@H](OC(=O)CN)C(=O)[C@H]2[C@@]1(C)CC[C@H]1C(=O)O[C@H](c3ccoc3)C[C@]21C | 0% | -5% | – | – | 17% | – | – | – | 41% | – | – | –
9 | COC(=O)[C@@H]1C[C@H](OC(=O)CNC(=O)OCC2c3ccccc3-c3ccccc32)C(=O)[C@H]2[C@@]1(C)CC[C@H]1C(=O)O[C@H](c3ccoc3)C[C@]21C | 10% | 20% | – | – | 16% | – | – | – | 4% | – | – | –
10 | COC(=O)[C@@H]1C[C@H](OC(=O)CCCNC(=O)OCC2c3ccccc3-c3ccccc32)C(=O)[C@H]2[C@@]1(C)CC[C@H]1C(=O)O[C@H](c3ccoc3)C[C@]21C | 0% | 27% | – | – | 24% | – | – | – | 10% | – | – | –
11 | COC(=O)[C@@H]1C[C@H](OC(=O)[C@H](Cc2ccccc2)NC(=O)OCC2c3ccccc3-c3ccccc32)C(=O)[C@H]2[C@@]1(C)CC[C@H]1C(=O)O[C@H](c3ccoc3)C[C@]21C | 34% | 0.5% | – | – | 3% | – | – | – | 0% | – | – | –
12 | COC(=O)[C@@H]1C[C@H](OC(=O)[C@@H](N)Cc2ccccc2)C(=O)[C@H]2[C@@]1(C)CC[C@H]1C(=O)O[C@H](c3ccoc3)C[C@]21C | 0% | -6% | – | – | 13% | – | – | – | 19% | – | – | –
13 | COC(=O)[C@@H]1C[C@H](OC(=O)[C@H](C)NC(=O)OCC2c3ccccc3-c3ccccc32)C(=O)[C@H]2[C@@]1(C)CC[C@H]1C(=O)O[C@H](c3ccoc3)C[C@]21C | 0% | 24% | – | – | 15% | – | – | – | 21% | – | – | –
